From US8193189B2, “Quinoxaline derivatives as tyrosine kinase activity inhibitors” (Novartis AG, priority 2007, dated 2012)

Assays:
GST-JAK1(866-1154) = biological target: T1, GST-JAK1(866-1154) (Homo sapiens, UniProt P23458); experiment: EPK JAK-family kinases profiling assay (Caliper mobility shift), JAK1; type: biochemical; conditions: ATP 40 μM, 50 nM kinase
T1 construct: GST-JAK1(866-1154); made in house
How it was run: (§1)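 Turnover was read as substrate/product ratio after mobility-shift capillary-like separation of each reaction, run for 60 min at 30 °C with GST-tagged kinase domain, labelled peptide and ATP, and terminated with EDTA stop buffer.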

GST-JAK2(808-1132) = biological target: T2, GST-JAK2(808-1132) (Homo sapiens, UniProt O60674); experiment: EPK JAK-family kinases profiling assay (Caliper mobility shift), JAK2; type: biochemical; conditions: ATP 20 μM
T2 construct: GST-JAK2(808-1132); purchased Invitrogen (Carlsbad, USA) #4288
T2 sequence (O60674 808-1132): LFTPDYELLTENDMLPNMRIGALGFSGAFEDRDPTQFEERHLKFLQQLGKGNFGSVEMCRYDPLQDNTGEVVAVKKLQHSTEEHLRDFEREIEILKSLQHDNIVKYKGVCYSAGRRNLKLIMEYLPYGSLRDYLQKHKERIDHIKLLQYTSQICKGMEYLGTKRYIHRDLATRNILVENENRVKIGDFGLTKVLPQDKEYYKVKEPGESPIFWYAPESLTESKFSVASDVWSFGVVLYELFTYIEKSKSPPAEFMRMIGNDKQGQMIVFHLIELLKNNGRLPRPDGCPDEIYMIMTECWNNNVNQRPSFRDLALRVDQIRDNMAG
How it was run: as §1

GST-TYK2(888-1187) = biological target: T3, GST-TYK2(888-1187) (Homo sapiens, UniProt P29597); experiment: EPK JAK-family kinases profiling assay (Caliper mobility shift), TYK2; type: biochemical; conditions: ATP 30 μM, 40 nM kinase
T3 construct: GST-TYK2(888-1187); made in house
T3 sequence (P29597 888-1187): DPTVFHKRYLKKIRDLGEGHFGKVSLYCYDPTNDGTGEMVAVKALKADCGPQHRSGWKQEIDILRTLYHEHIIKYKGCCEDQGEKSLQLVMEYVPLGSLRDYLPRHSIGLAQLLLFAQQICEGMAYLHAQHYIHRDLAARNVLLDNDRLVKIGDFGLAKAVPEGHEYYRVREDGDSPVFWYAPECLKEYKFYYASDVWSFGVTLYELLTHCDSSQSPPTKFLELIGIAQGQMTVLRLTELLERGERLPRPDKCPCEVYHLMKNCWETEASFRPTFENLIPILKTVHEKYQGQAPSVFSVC
From the text: All four kinases of the JAK-family kinases were used as purified recombinant GST-fusion proteins, containing the active kinase domains. GST-JAK1(866-1154), GST-JAK3(811-1124), and GST-TYK2(888-1187) were expressed and purified by affinity chromatography at the EPK biology unit. GST-JAK2(808-1132) was purchased from Invitrogen (Carlsbad, USA, #4288).
The kinase assays were based on the Caliper mobility shift assay using the LabChip 3000 systems. This technology is similar to capillary electrophoresis and uses charge driven separation of substrate and product in a microfluidic chip.
All kinase reactions were performed in 384 well microtiter plates in a total reaction volume of 18 μl. The assay plates were prepared with 0.1 μl per well of test compound in the appropriate test concentration, as described under the section “preparation of compound dilutions”. The reactions were started by combining 9 μl of substrate mix (consisting of peptide and ATP) with 9 μl of kinase dilution. The reactions were incubated for 60 minutes at 30° C. and stopped by adding 70 μl of stop buffer (100 mM Hepes, 5% DMSO, 0.1% Coating reagent, 10 mM EDTA, 0.015% Brij 35).
Fluorescently labeled synthetic peptides were used as substrates in all reactions. […] Specific assay conditions are described in Table 1:
The terminated reactions were transferred to the Caliper LabChip 3000 reader and the turnover of each reaction was measured by determining the substrate/product ratio.
Test compounds were dissolved in DMSO (10 mM) and transferred into 1.4 mL flat bottom or V-shaped Matrix tubes carrying a unique 2D matrix chip by individual compound hubs. The numbers of these chips were distinctively linked to the individual compound identification numbers. The stock solutions were stored at −20° C. if not used immediately. For the test procedure the vials were defrosted and identified by a scanner whereby a working sheet was generated that guided the subsequent working steps.
Compound dilutions were made in 96 well plates. This format enabled the assay of maximally 40 individual test compounds at 8 concentrations (single points) including 4 reference compounds. The dilution protocol included the production of pre-dilution plates, master plates and assay plates:
Pre-dilution plates: 96 polypropylene well plates were used as pre-dilution plates. A total of 4 pre-dilution plates were prepared including 10 test compounds each on the plate positions A1-A10, one standard compound at A11 and one DMSO control at A12. All dilution steps were done on a HamiltonSTAR robot.
Master plates: 100 μL of individual compound dilutions including standard compound and controls of the 4 “pre-dilution plates” were transferred into a 384 “master plate” including the following concentrations 1′820, 564, 182, 54.6, 18.2, 5.46, 1.82 and 0.546 μM, respectively in 90% of DMSO.
Assay plates: Identical assay plates were then prepared by pipetting 100 nL each of compound dilutions of the master plates into 384-well “assay plates”. […] The preparation of the master plates were handled by the Matrix PlateMate Plus robot and replication of assay plates by the HummingBird robot.

GST-JAK3(811-1124) = biological target: T4, GST-JAK3(811-1124) (Homo sapiens, UniProt P52333); experiment: EPK JAK-family kinases profiling assay (Caliper mobility shift), JAK3; type: biochemical; conditions: ATP 80 μM, 6 nM kinase
T4 construct: GST-JAK3(811-1124); made in house
T4 sequence (P52333 811-1124): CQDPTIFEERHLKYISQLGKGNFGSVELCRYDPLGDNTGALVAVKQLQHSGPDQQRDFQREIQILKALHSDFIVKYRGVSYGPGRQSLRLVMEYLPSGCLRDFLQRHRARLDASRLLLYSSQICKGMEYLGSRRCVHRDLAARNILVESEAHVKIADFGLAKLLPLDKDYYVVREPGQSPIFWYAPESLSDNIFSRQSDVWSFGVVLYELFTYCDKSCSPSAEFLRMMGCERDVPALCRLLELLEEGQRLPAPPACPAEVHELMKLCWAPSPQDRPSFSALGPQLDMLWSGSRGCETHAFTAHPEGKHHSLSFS
How it was run: as §1

[1] = tested on: JAK/STAT pathway (JAK1/JAK2-dependent nuclear translocation of STAT1-GFP); experiment: Inhibition of the JAK/STAT pathway: IFN-γ stimulated nuclear translocation of STAT1-GFP in HT1080 fibrosarcoma cells; type: cell-based; conditions: Homo sapiens, HT-1080; HT1080 STAT1-GFP cells, 100 ng/ml IFN-γ 2 hours, compound added 30 min before; read-out: STAT1translo IC50
How it was run: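 HT1080 cells stably expressing STAT1-GFP, compounds added 30 min before IFN-γ stimulation at final 10 μM down to 0.003 μM (0.1% DMSO). Nuclear-cytoplasmic GFP intensity differential quantified by automated imaging with Hoechst nuclear mask, ≥1000 cells per well, averaged per well.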

T1 sequence (P23458 866-1154): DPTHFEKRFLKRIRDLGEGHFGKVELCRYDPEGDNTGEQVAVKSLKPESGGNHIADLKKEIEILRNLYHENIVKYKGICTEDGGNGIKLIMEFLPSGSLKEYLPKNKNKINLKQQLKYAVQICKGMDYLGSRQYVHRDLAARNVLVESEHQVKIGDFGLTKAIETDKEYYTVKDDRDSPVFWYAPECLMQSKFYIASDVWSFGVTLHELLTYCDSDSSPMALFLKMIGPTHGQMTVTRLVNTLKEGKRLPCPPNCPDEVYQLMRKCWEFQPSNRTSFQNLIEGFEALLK

| Structure (SMILES) | IC50 (GST-JAK1(866-1154)) [nM] | IC50 (GST-JAK2(808-1132); 1.8 nM kinase) [nM] | IC50 (GST-TYK2(888-1187)) [nM] | IC50 (GST-JAK2(808-1132); […] kinase) [nM] | IC50 (GST-JAK3(811-1124)) [nM] | IC50 [1] [nM] |
| --- | --- | --- | --- | --- | --- | --- |
| Cc1cc(-c2cnc3cccc(-c4ccc(C(=O)N5CCCC5)c(C)c4)c3n2)ccc1C(=O)N1CCCC1 [Example 68, (2-Methyl-4-{3-[3-methyl-4-(pyrrolidine-1-carbonyl)-phenyl]-quinoxalin-5-yl}-phenyl)-pyrrolidin-1-yl-methanone] | 2300 | 109 | – | – | 6850 | 4890 |
| Cc1cc(-c2cnc3cccc(-c4ccc(CC(=O)N5CCOCC5)c(F)c4)c3n2)ccc1OCCCN1CCOCC1 [Example 76, 2-(2-Fluoro-4-{3-[3-methyl-4-(3-morpholin-4-yl-propoxy)-phenyl]-quinoxalin-5-yl}-phenyl)-1-morpholin-4-yl-ethanone] | 690 | 59.5 | – | – | 4100 | 5990 |
| CCN1CCN(C(=O)c2ccc(-c3cnc4cccc(-c5ccc(C(C)(C)N6CCOCC6)c(C)c5)c4n3)cc2C)CC1 [Example 80, (4-Ethyl-piperazin-1-yl)-(2-methyl-4-{8-[3-methyl-4-(1-methyl-1-morpholin-4-yl-ethyl)-phenyl]-quinoxalin-2-yl}-phenyl)-methanone] | 3800 | 75 | – | – | 4550 | 1550 |
| CCN1CCN(C(=O)c2ccc(-c3cnc4cccc(-c5ccc(C(C)(C)N6CCS(=O)(=O)CC6)c(C)c5)c4n3)cc2C)CC1 [Example 81, [4-(8-{4-[1-(1,1-Dioxido-thiomorpholin-4-yl)-1-methyl-ethyl]-3-methyl-phenyl}-quinoxalin-2-yl)-2-methyl-phenyl]-(4-ethyl-piperazin-1-yl)-methanone] | 1150 | 16.5 | – | – | 780 | 389 |
| CCN1CCN(C(=O)c2ccc(-c3cnc4cccc(-c5cc(F)c(CN6CCOCC6)c(F)c5)c4n3)cc2C)CC1 [Example 82, {4-[8-(3,5-Difluoro-4-morpholin-4-ylmethyl-phenyl)-quinoxalin-2-yl]-2-methyl-phenyl}-(4-ethyl-piperazin-1-yl)-methanone] | 490 | 14 | – | – | 1250 | 946 |
| Cc1cc(CN2CCOCC2)ccc1-c1cccc2ncc(-c3cnn(C4CCNCC4)c3)nc12 [Example 147, 8-(2-Methyl-4-morpholin-4-ylmethyl-phenyl)-2-(1-piperidin-4-yl-1H-pyrazol-4-yl)-quinoxaline] | 1500 | 97 | 1000 | – | – | – |
| Cc1nn(C2CCNCC2)c(C)c1-c1cnc2cccc(-c3cc(F)c(CN4CCOCC4)c(F)c3)c2n1 [Example 155, 8-(3,5-Difluoro-4-morpholin-4-ylmethyl-phenyl)-2-(3,5-dimethyl-1-piperidin-4-yl-1H-pyrazol-4-yl)-quinoxaline] | 3400 | 63 | 7600 | – | – | – |

Now those with a lower IC50 (GST-JAK1(866-1154)), led by results:

| IC50 (GST-JAK1(866-1154)) [nM] | IC50 (GST-JAK2(808-1132); 1.8 nM kinase) [nM] | IC50 (GST-TYK2(888-1187)) [nM] | IC50 (GST-JAK2(808-1132); […] kinase) [nM] | IC50 (GST-JAK3(811-1124)) [nM] | IC50 [1] [nM] | Structure (SMILES) |
| --- | --- | --- | --- | --- | --- | --- |
| 360 | 6.4 | 400 | – | – | – | Fc1cc(-c2cccc3ncc(-c4cnn(C5CCCNC5)c4)nc23)cc(F)c1CN1CCOCC1 (racemic) [Example 160, (rac)-8-(3,5-Difluoro-4-morpholin-4-ylmethyl-phenyl)-2-(1-piperidin-3-yl-1H-pyrazol-4-yl)-quinoxaline] |
| 27 | – | 235 | 5.1 | – | – | COc1cc(-c2cnc3cccc(-c4ccc(CC(=O)N5CCS(=O)(=O)CC5)cc4)c3n2)cc(OC)c1OC [Example 13, 1-(1,1-Dioxido-thiomorpholin-4-yl)-2-{4-[3-(3,4,5-trimethoxy-phenyl)-quinoxalin-5-yl]-phenyl}-ethanone] |
| 140 | 6.05 | – | – | 250 | 1000 | Cc1cc(-c2cnc3cccc(-c4cc(F)c(CN5CCOCC5)c(F)c4)c3n2)ccc1C(=O)N1CCCC1 [Example 66, {4-[8-(3,5-Difluoro-4-morpholin-4-ylmethyl-phenyl)-quinoxalin-2-yl]-2-methyl-phenyl}-pyrrolidin-1-yl-methanone] |
| 96.5 | < 3 | – | – | 405 | 475 | Cc1cc(-c2cnc3cccc(-c4ccc(CN5CCS(=O)(=O)CC5)c(Cl)c4)c3n2)ccc1C(=O)N1CCCC1 [Example 67, (4-{8-[3-Chloro-4-(1,1-dioxido-thiomorpholin-4-ylmethyl)-phenyl]-quinoxalin-2-yl}-2-methyl-phenyl)-pyrrolidin-1-yl-methanone] |
| 75 | 6.7 | – | – | 890 | 530 | Cc1cc(-c2cnc3cccc(-c4ccc(CC(=O)N5CCS(=O)(=O)CC5)c(F)c4)c3n2)ccc1CN1CCOCC1 [Example 69, 1-(1,1-Dioxido-thiomorpholin-4-yl)-2-{2-fluoro-4-[3-(3-methyl-4-morpholin-4-ylmethyl-phenyl)-quinoxalin-5-yl]-phenyl}-ethanone] |
| 110 | 5.7 | – | – | 670 | 1120 | Cc1cc(-c2cnc3cccc(-c4ccc(CC(=O)N5CCS(=O)(=O)CC5)c(F)c4)c3n2)ccc1Cn1ccnc1 [Example 72, 1-(1,1-Dioxido-thiomorpholin-4-yl)-2-{2-fluoro-4-[3-(4-imidazol-1-ylmethyl-3-methyl-phenyl)-quinoxalin-5-yl]-phenyl}-ethanone] |
| 190 | 28 | – | – | 370 | > 10000 | O=C(c1ccc(-c2cccc3ncc(-c4ccc(OCCCN5CCOCC5)cc4)nc23)cc1F)N1CCS(=O)(=O)CC1 [Example 73, (1,1-Dioxido-thiomorpholin-4-yl)-(2-fluoro-4-{3-[4-(3-morpholin-4-yl-propoxy)-phenyl]-quinoxalin-5-yl}-phenyl)-methanone] |
| 310 | 25 | – | – | 1300 | 2610 | O=C(Cc1ccc(-c2cccc3ncc(-c4ccc(OCCCN5CCOCC5)cc4)nc23)cc1)N1CCOCC1 [Example 74, 1-Morpholin-4-yl-2-(4-{3-[4-(3-morpholin-4-yl-propoxy)-phenyl]-quinoxalin-5-yl}-phenyl)-ethanone] |
| 410 | 34 | – | – | 1700 | > 10000 | O=C(c1ccc(-c2cccc3ncc(-c4ccc(OCCCN5CCOCC5)cc4)nc23)cc1F)N1CCOCC1 [Example 75, (2-Fluoro-4-{3-[4-(3-morpholin-4-yl-propoxy)-phenyl]-quinoxalin-5-yl}-phenyl)-morpholin-4-yl-methanone] |
| 200 | 3.8 | 230 | – | – | – | CC(=O)N1CCC(n2cc(-c3cnc4cccc(-c5cc(F)c(CN6CCOCC6)c(F)c5)c4n3)cn2)CC1 [Example 121, 1-(4-{4-[8-(3,5-Difluoro-4-morpholin-4-ylmethyl-phenyl)-quinoxalin-2-yl]-pyrazol-1-yl}-piperidin-1-yl)-ethanone] |
